Data from patent US9686984B2, “Macrocyclic picolinamides as fungicides” (DOW AGROSCIENCES LLC, priority 2014, dated 2017).

What was measured:
Format in all cases: in vivo
Details in all cases: 100 ppm, 1 Day Protectant
[1] = test system: Alternaria solani; assay: Tomato Early Blight (ALTESO) disease control
Description: Technical grades of materials were dissolved in acetone, which were then mixed with nine volumes of water containing 110 ppm Triton X-100. The fungicide solutions were applied onto wheat seedlings using an automated booth sprayer to run-off. All sprayed plants were allowed to air dry prior to further handling. All fungicides were evaluated using the aforementioned method for their activity vs. all target diseases, unless stated otherwise. Wheat leaf blotch and brown rust activity were also evaluated using track spray applications, in which case the fungicides were formulated as EC formulations, containing 0.1% Trycol 5941 in the spray solutions. Wheat plants (variety Yuma) were grown from seed in a greenhouse in 50% mineral soil/50% soil-less Metro mix until the first leaf was fully emerged, with 7-10 seedlings per pot. These plants were inoculated with an aqueous spore suspension of Septoria tritici either prior to or after fungicide treatments. After inoculation the plants were kept in 100% relative humidity (one day in a dark dew chamber followed by two to three days in a lighted dew chamber at 20° C.) to permit spores to germinate and infect the leaf. The plants were then transferred to a greenhouse set at 20° C. for disease to develop. When disease symptoms were fully expressed on the 1st leaves of untreated plants, infection levels were assessed on a scale of 0 to 100 percent disease severity. Percent disease control was calculated using the ratio of disease severity on treated plants relative to untreated plants. Example M: Evaluation of Fungicidal Activity: Tomato Early Blight (Alternaria solani; Bayer Code […]) Tomato plants (variety Outdoor Girl) were propagated in soil-less Metro mix, with each pot having one plant, and used when 12 to 14 days old. Test plants were inoculated with an aqueous spore suspension of Alternaria solani 24 hr after fungicide treatments. […]

[2] = test system: Leptosphaeria nodorum; assay: Wheat Glume Blotch (LEPTNO) disease control
Description: Technical grades of materials were dissolved in acetone, which were then mixed with nine volumes of water containing 110 ppm Triton X-100. The fungicide solutions were applied onto wheat seedlings using an automated booth sprayer to run-off. All sprayed plants were allowed to air dry prior to further handling. All fungicides were evaluated using the aforementioned method for their activity vs. all target diseases, unless stated otherwise. Wheat leaf blotch and brown rust activity were also evaluated using track spray applications, in which case the fungicides were formulated as EC formulations, containing 0.1% Trycol 5941 in the spray solutions. Wheat plants (variety Yuma) were grown from seed in a greenhouse in 50% mineral soil/50% soil-less Metro mix until the first leaf was fully emerged, with 7-10 seedlings per pot. These plants were inoculated with an aqueous spore suspension of Septoria tritici either prior to or after fungicide treatments. After inoculation the plants were kept in 100% relative humidity (one day in a dark dew chamber followed by two to three days in a lighted dew chamber at 20° C.) to permit spores to germinate and infect the leaf. The plants were then transferred to a greenhouse set at 20° C. for disease to develop. When disease symptoms were fully expressed on the 1st leaves of untreated plants, infection levels were assessed on a scale of 0 to 100 percent disease severity. Percent disease control was calculated using the ratio of disease severity on treated plants relative to untreated plants. Example C: Evaluation of Fungicidal Activity: Wheat Glume Blotch (Leptosphaeria nodorum; Bayer code […]) Wheat plants (variety Yuma) were grown from seed in a greenhouse in 50% mineral soil/50% soil-less Metro mix until the first leaf was fully emerged, with 7-10 seedlings per pot. These plants were inoculated with an aqueous spore suspension of Leptosphaeria nodorum 24 hr after fungicide treatments. […]

[3] = test system: Magnaporthe grisea
[4] = test system: Rhyncosporium secalis; assay: Barley Scald (RHYNSE) disease control
Description: Technical grades of materials were dissolved in acetone, which were then mixed with nine volumes of water containing 110 ppm Triton X-100. The fungicide solutions were applied onto wheat seedlings using an automated booth sprayer to run-off. All sprayed plants were allowed to air dry prior to further handling. All fungicides were evaluated using the aforementioned method for their activity vs. all target diseases, unless stated otherwise. Wheat leaf blotch and brown rust activity were also evaluated using track spray applications, in which case the fungicides were formulated as EC formulations, containing 0.1% Trycol 5941 in the spray solutions. Wheat plants (variety Yuma) were grown from seed in a greenhouse in 50% mineral soil/50% soil-less Metro mix until the first leaf was fully emerged, with 7-10 seedlings per pot. These plants were inoculated with an aqueous spore suspension of Septoria tritici either prior to or after fungicide treatments. After inoculation the plants were kept in 100% relative humidity (one day in a dark dew chamber followed by two to three days in a lighted dew chamber at 20° C.) to permit spores to germinate and infect the leaf. The plants were then transferred to a greenhouse set at 20° C. for disease to develop. When disease symptoms were fully expressed on the 1st leaves of untreated plants, infection levels were assessed on a scale of 0 to 100 percent disease severity. Percent disease control was calculated using the ratio of disease severity on treated plants relative to untreated plants. Example K: Evaluation of Fungicidal Activity: Barley Scald (Rhyncosporium secalis; Bayer Code […]) Barley seedlings (variety Harrington) were propagated in soil-less Metro mix, with each pot having 8 to 12 plants, and used in the test when first leaf was fully emerged. Test plants were inoculated by an aqueous spore suspension of Rhyncosporium secalis 24 hr after fungicide treatments. After inoculation the plants were kept in a dew room at 20° C. with 100% relative humidity for 48 hr. […]

Row | SMILES | ALTESO disease control, 1DP [1] | LEPTNO disease control, 1DP [2] | PYRIOR disease control, 1DP [3] | RHYNSE disease control, 1DP [4]
1 | CCCC[C@H]1OCC[C@H](NC(=O)c2nccc(OC)c2OC(C)=O)C(=O)O[C@@H](C)[C@@H]1Cc1ccccc1 [Compound 2] | B (≦70) | A (>70) | A (>70) | A (>70)
2 | COc1ccnc(C(=O)N[C@H]2CCO[C@H](Cc3ccccc3)[C@@H](Cc3ccccc3)[C@H](C)OC2=O)c1OC(C)=O [Compound 3] | B (≦70) | A (>70) | A (>70) | B (≦70)
3 | CCC[C@H]1OCC[C@H](NC(=O)c2nccc(OC)c2OCOC(C)=O)C(=O)O[C@@H](C)[C@@H]1Cc1ccccc1 [Compound 17] | B (≦70) | A (>70) | A (>70) | B (≦70)
